Entries after “also recorded” stand apart in the source; their conditions may differ.

Data set [1] deals with MCF7 (breast adenocarcinoma, Rb-positive). Kind of data set: Cellular proliferation assay (CellTiter-Glo), MCF7. The note with it: Homo sapiens, MCF7, 144 h, cell viability after six days. In kind it is cell-based.
For data set [2], the system named is A2058 (human metastatic melanoma cells, Rb-negative). The data set is described as follows: Cellular proliferation assay (CellTiter-Glo), A2058. The class given is cell-based. The note with it: A2058, 144 h, cell viability after six days.
Data set [3] has as its system H69 (human small cell lung cancer, Rb-negative) cells. The data set is described as follows: Cellular proliferation assay (CellTiter-Glo), H69. In kind it is cell-based. The note with it: NCI-H69, 96 h, cell viability after four days.
In another data set the target is CDK6/CycD3 (Homo sapiens, UniProt Q00534). The data set is described as follows: CDK6/CycD3 kinase assay. The note with it: read-out: CDK6/CycD3 IC50; Table 3.
CDK6/CycD3, sequence (Q00534 whole entry, species assumed): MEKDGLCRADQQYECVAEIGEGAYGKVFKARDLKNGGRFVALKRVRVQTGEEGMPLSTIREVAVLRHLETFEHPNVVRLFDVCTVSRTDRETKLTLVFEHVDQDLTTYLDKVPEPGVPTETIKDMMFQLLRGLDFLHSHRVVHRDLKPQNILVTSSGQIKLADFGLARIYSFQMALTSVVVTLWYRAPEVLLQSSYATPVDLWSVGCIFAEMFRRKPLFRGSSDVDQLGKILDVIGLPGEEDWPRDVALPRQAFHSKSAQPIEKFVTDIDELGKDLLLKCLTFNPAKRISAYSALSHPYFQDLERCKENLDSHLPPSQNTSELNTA
CDK6/CycD3, sequence (P30281 whole entry partner, species assumed): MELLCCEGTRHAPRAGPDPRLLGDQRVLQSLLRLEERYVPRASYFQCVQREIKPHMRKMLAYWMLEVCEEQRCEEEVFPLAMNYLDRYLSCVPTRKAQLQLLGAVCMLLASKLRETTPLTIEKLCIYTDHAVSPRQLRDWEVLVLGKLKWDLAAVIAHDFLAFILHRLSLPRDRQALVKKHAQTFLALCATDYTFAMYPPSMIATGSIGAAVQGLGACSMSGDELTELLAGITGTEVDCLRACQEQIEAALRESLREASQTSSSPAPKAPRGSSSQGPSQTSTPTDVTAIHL
A further data set deals with HS68 cells. The data set is described as follows: G1 arrest (cellular G1 and S-phase) assay, propidium iodide flow cytometry. In kind it is cell-based, human. The note with it: Homo sapiens, Hs68, HS68 cells. The protocol: HS68 cells (human skin fibroblast cell line (Rb-positive)) were stained with propidium iodide staining solution and run on Dako Cyan Flow Cytometer. The fraction of cells in G0-G1 DNA cell cycle versus the fraction in S-phase DNA cell cycle was determined using FlowJo 7.2.2 analysis.
The compounds listed in Table 1 were tested for their ability to arrest HS68 cells at the G1 phase of the cell cycle.

Data set [4] can be described thus: Mouse pharmacokinetics (oral gavage / intravenous). The class given is in vivo, mice. The note with it: for AUC 0-inf (uM * h) i.v.: 10 mg/kg intravenous injection; for AUC (uM * h) p.o. / Cmax / Tmax (h) p.o. / t1/2 (h) p.o.: 30 mg/kg oral gavage; for t1/2 (h) p.o.: 30 mg/kg.
Data set [5] has as its system ZR-75-1 (breast ductal carcinoma, Rb-positive). The data set is described as follows: Cellular proliferation assay (CellTiter-Glo), ZR-75-1. The note with it: Homo sapiens, ZR-75-1, 144 h, cell viability after six days, read-out: ZR75-1 Cellular EC50. In kind it is cell-based. As to the method:
Further cellular proliferation assays were conducted using the following cancer cell lines: MCF7 (breast adenocarcinoma—Rb-positive), ZR-75-1 (breast ductal carcinoma—Rb-positive), H69 (human small cell lung cancer—Rb-negative) cells, or A2058 (human metastatic melanoma cells—Rb-negative). These cells were seeded in Costar (Tewksbury, Massachusetts) 3093 96 well tissue culture treated white walled/clear bottom plates. Cells were treated with the compounds of Table 1 as nine point dose response dilution series from 10 uM to 1 nM. Cells were exposed to compounds and then cell viability was determined after either four (H69) or six (MCF7, ZR75-1, A2058) days as indicated using the CellTiter-Glo® luminescent cell viability assay (CTG; Promega, Madison, Wisconsin, United States of America) following the manufacturer's recommendations. Plates were read on BioTek (Winooski, Vermont) Syngergy2 multi-mode plate reader. The Relative Light Units (RLU) were plotted as a result of variable molar concentration and data was analyzed using Graphpad (LaJolla, California) Prism 5 statistical software to determine the EC50 for each compound.

Data set [6] concerns tHS68 cells (Rb-positive). Kind of data set: Cell cycle arrest screen, tHS68. The class given is cell-based. From the text: (§1) To test the ability of the disclosed CDK4/6 inhibitors to induce a clean G1-arrest, a cell based screening method was used consisting of two Rb-positive (tHS68 and WM2664) and one Rb-negative (A2058) cell line. […] At the conclusion of the experiment, cells were harvested, fixed, and stained with propidium iodide (a DNA intercalator), which fluoresces strongly red (emission maximum 637 nm) when excited by 488 nm light. Samples were run on Dako Cyan flow cytometer and >10,000 events were collected for each sample. Data were analyzed using FlowJo 2.2 software developed by TreeStar, Inc.

Data set [7] relates to NCI-H69 SCLC xenograft (Rb-negative). In kind it is in vivo. From the text: An Rb-negative model of small cell lung cancer was used in the following example. Briefly, xenografts of National Cancer Institute (NCI) […] cells were grafted onto the mice (Athymic Nude (Crl:NU(NCr)-Foxn1^nu); 6-12 week old females) using the South Texas Accelerated Research Therapeutics (START) Cell-Based Xenograft (START-CBX) tumor model. H69 cells are human small cell lung cancer cells and are Rb-negative.
Data collected from the efficacy study included animal weights, observations and tumor dimensions. This information was used to determine agent tolerability based on weight change and gross physiologic changes and anticancer activity based on tumor growth delay or regression. The designated endpoint for this study was an individual tumor volume of 1 cm^3 or 60 days following treatment initiation.
Tumor fragments from NCI-H69 were harvested from host animals and implanted into immune-deficient mice and the study initiated at a mean tumor volume of approximately 150-250 mm^3.
Additional details of the study are outlined in Table 6 below. […] Tumor size was examined twice per week and the endpoint for this study was Day 59.

In data set [8] the test system is WM2664 cells (Rb-positive). Kind of data set: Cell cycle arrest screen, WM2664. The note with it: 24 hours. In kind it is cell-based.
Source text: as §1

Data set [9] has as its system Rb phosphorylation (Ser780, Ser807/811) in A2058 cells. Kind of data set: Rb phosphorylation western blot, A2058. The class given is cell-based. The note with it: A2058, 300 nM, 4, 8, 16 and 24 hours. As to the method: (§2) The CDK4/6-cyclin D complex is essential for progression from G1 to the S-phase of the DNA cell cycle. This complex phosphorylates the retinoblastoma tumor suppressor protein (Rb). […] Samples were lysed and protein was assayed by western blot analysis. Rb phosphorylation was measured at two sites targeted by the CDK4/6-cyclin D complex, Ser780 and Ser807/811 using species specific antibodies.

The test system of data set [10] is Rb phosphorylation (Ser780, Ser807/811) in tHS68 cells. The data set is described as follows: Rb phosphorylation western blot, tHS68. In kind it is cell-based. The note with it: tHS68, 300 nM, 4, 8, 16 and 24 hours. The protocol:
as §2

Data set [11] deals with NCI-H69 SCLC xenograft (Rb-negative). The data set is described as follows: NCI-H69 SCLC xenograft model, Example 156. The class given is in vivo, mice. The note with it: Compound T 100 mg/kg po qd×5×4; carboplatin 40 mg/kg and etoposide 4 mg/kg ip twice per week for 3 weeks; topotecan 0.6 mg/kg ip once daily for 5 days; FIG. 11.
Data set [12] concerns 456 (395 non-mutant) kinases. The data set is described as follows: DiscoveRx KINOMEscan profiling. In kind it is binding. The note with it: single concentration 1000 nM.
Data set [13] deals with Rb phosphorylation (Ser780, Ser807/811) in WM2664 cells. The data set is described as follows: Rb phosphorylation western blot, WM2664. The class given is cell-based. The note with it: WM2664, 300 nM, 4, 8, 16 and 24 hours. As to the method:
as §2

Data set [14] has as its system A2058 cells (Rb-negative). The data set is described as follows: Cell cycle arrest screen, A2058. The class given is cell-based. The note with it: 24 hours.
Source text: as §1

Setting [15] is: Group 2: Compound T 100 mg/kg PO qdx5x4 and topotecan vehicle.

On to `CC(C)N1CCN(c2ccc(Nc3ncc4cc5n(c4n3)C3(CCCCC3)CNC5=O)nc2)CC1` [Compound GG], for which the EC50 in data set [1] worked out at 52 nM. This compound registered an EC50 in data set [2] of 2690 nM. For the same compound, the EC50 in [3] turned out to be 2920 nM. Besides, the IC50 at CDK6/CycD3 turned out to be 4.7 nM. In addition, in the data set with HS68 cells, the EC50 came to 80 nM. Further, in data set [4], the “AUC 0-inf (uM * h) i.v.” value was 1.1 µM·h, the “AUC (uM * h) p.o.” value came out at 1.9 µM·h, the Cmax was 1.9 µM and the “Tmax (h) p.o.” value is recorded as 1 h. For the same compound, in data set [4], the “t1/2 (h) p.o.” value came out at 3.5 h. Also, the EC50 in data set [5] was 62 nM.
`CN1CCN(c2ccc(Nc3ncc4cc5n(c4n3)C3(CCCCC3)CNC5=O)nc2)CC1` [Compound T]: in data set [6] (300 nM, 24 hours), the “cell cycle distribution at 300 nM (in words)” value is reported as “loss of the S-phase peak”. For the same compound, the EC50 in data set [6] (24 hours treatment, read-out: G1 cell cycle arrest EC50) was found to be 80 nM. In addition, the “S-phase fraction at the highest concentration shown” value in data set [6] (24 hours, 28% at baseline) is recorded as 6%. For the same compound, in data set [6] (24 hours, FIG. 9A), the “cell cycle distribution, increasing concentrations (in words)” value is “robust G1 cell cycle arrest; also recorded: clean G1 arrest accompanied by a corresponding decrease in the number of cells in S-phase”. Besides, the “activity toward NCI-H69 xenografts / tumor volume (in words)” value in [7] (Compound T alone 100 mg/kg, topotecan 0.6 mg/kg, combination with each Compound T dose (100, 50 or 10 mg/kg), FIG. 16) was “inactive”. For the same compound, the “tolerability: weight loss or toxicity (in words)” value in data set [7] (Compound T alone or thirty minutes before topotecan, FIG. 13) is recorded as “well tolerated with no additive weight loss or toxicity”. Moreover, in [7] (setting [15]), the “CR (tumor volume < 15 mm^3)” value stood at 0, the “LTS (individual tumor volume < volume endpoint at study time endpoint)” value amounted to 0, the “MTTE ± SD (timepoint in days to reach designated tumor volume or time endpoint)” value is on record as 14 ± 4 days and the “PR (%) (tumor volume ≥ 50% regression versus Day 0)” value was 0%. Further, in data set [7] (setting [15]), the “T-C (difference in days between MTTE of treatment and control groups)” value is under 0 days; the “TFS (complete responder at study endpoint)” value turned out to be 0. This compound showed a concentration for a half-maximal effect (EC50) in [1] of 49 nM. In data set [2], this compound yielded an EC50 of over 3000 nM. Also, the “cell cycle distribution at 300 nM (in words)” value in data set [8] is reported as “loss of the S-phase peak”. This compound had an EC50 in [3] of over 3000 nM. Besides, in data set [9], the “Rb phosphorylation at Ser780 and Ser807/811 (in words)” value (from here on “Rb phosphorylation”) is recorded as “but not in the Rb-negative cell line (A2058)”. Moreover, in data set [10], the “Rb phosphorylation” value is recorded as “blocks Rb phosphorylation in Rb-positive cell lines by 16 hours post exposure; also recorded: reduced Rb-phosphorylation starting 16 hours after treatment”. Also, the “effect on tumor growth / tumor size (in words)” value in data set [11] is “very little effect of slowing tumor growth”. In the data set on HS68 cells, this compound showed an EC50 of 100 nM. In [4], the “AUC 0-inf (uM * h) i.v.” value stood at 1.3 µM·h, the “AUC (uM * h) p.o.” value worked out at 2.9 µM·h, the highest level (Cmax) was 2.5 µM and the “Tmax (h) p.o.” value is listed as 1 h. The “t1/2 (h) p.o.” value in data set [4] worked out at 5 h. Also, the EC50 in data set [5] is 36 nM. Also, in data set [12], the “number of 395 non-mutant kinases inhibited, inhibitory threshold 65%” value was found to be 92; the “number of 395 non-mutant kinases inhibited, inhibitory threshold 90%” value worked out at 31; the “number of 395 non-mutant kinases inhibited, inhibitory threshold 99%” value is recorded as 6; the “share of 395 non-mutant kinases inhibited, inhibitory threshold 65%” value worked out at 23.3%. Besides, in data set [12], the “share of 395 non-mutant kinases inhibited, inhibitory threshold 90%” value is given as 7.8% and the “share of 395 non-mutant kinases inhibited, inhibitory threshold 99%” value was 1.5%. In data set [13], the “Rb phosphorylation” value is listed as “blocks Rb phosphorylation in Rb-positive cell lines by 16 hours post exposure; also recorded: reduced Rb-phosphorylation starting 16 hours after treatment”. Besides, the “cell cycle distribution at 300 nM (in words)” value in [14] is “does not cause a loss of the S-phase peak”.

Values taken from patent publication US12285431B2, “Treatment of Rb-negative tumors using topoisomerase inhibitors in combination with cyclin dependent kinase 4/6 inhibitors” (G1 Therapeutics, Inc., priority 2014, dated 2025).
